Laboratory results taken from paper PMC6527858, “FABP1 controls hepatic transport and biotransformation of Δ^9-THC” (Scientific Reports, 2019).
Read-outs that look alike come from different tables or passages of the source.

Legend:
human FABP1 [1] = target: T1, human FABP1 (Homo sapiens, UniProt P07148); assay: DAUDA fluorescence displacement binding assay; settings: for maximal displacement of the fluorescent probe DAUDA: maximal effect in the tested concentration range
T1 construct: His tag (N); host or cells: BL21(DE3) Escherichia coli
T1 sequence (P07148 1-127): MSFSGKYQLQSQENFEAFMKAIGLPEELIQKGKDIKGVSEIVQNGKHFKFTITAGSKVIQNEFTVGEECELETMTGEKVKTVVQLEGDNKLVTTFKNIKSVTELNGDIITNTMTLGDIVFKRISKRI
Experimental: Human FABP1 in a pNIC28-Bsa4 vector was obtained from Addgene (plasmid #42344; Addgene, Cambridge, MA, USA). Following sequence verification the construct was transformed into BL21(DE3) Escherichia coli for expression. The recombinant FABP1 protein was purified by nickel-affinity chromatography as described previously. Residual endogenous bacterial lipids were stripped from the purified protein by incubation in a column of hydroxyalkoxypropyl-dextran (Sigma Chemical Co., St Louis, MO, USA) for 1 hour at 37 °C.
Binding assays were carried out in 96-well Costar® plates (Corning Life Science, Kennebunk, ME, USA). FABP1 (3 μM) was incubated with DAUDA (500 nM), in binding assay buffer (30 mM Tris-HCl, 100 mM NaCl, pH 7.6). Competitor test compounds (0.1–500 μM) were then introduced to the well, mixed, and the system was allowed to equilibrate for 20 minutes at 25 °C in the dark. All experimental conditions were tested in triplicate. […] Loss of fluorescence intensity was monitored with an F5 Filtermax Multi-Mode Microplate Reader (Molecular Devices, Sunnyvale, CA, USA) using excitation/emission wavelengths = 345/535 nm. Following background subtraction, raw fluorescence intensity values were normalized and fit to a one-site competition binding analysis using the Graphpad Prism software.

[2] = THC pharmacokinetics in wild-type and FABP1-KO mice (LC-MS/MS of brain and plasma); settings: THC 10 mg/kg i.p.; for AUC: 0-24 h
Experimental: The pharmacokinetics of THC were subsequently examined to determine whether FABP1 regulates THC biotransformation in vivo. Wild-type and FABP1-KO mice were administered a single dose of THC (10 mg/kg, i.p.) and blood plasma and brains were harvested at several time points during a 24-hour time course (0, 0.5, 1, 2, 3, 4, 6, 7, and 24 hours post-THC). Levels of THC and its major primary and secondary metabolites (11-OH-THC and THC-COOH) were subsequently quantified by LC-MS/MS.
Mice were administered THC (10 mg/kg, i.p.) and plasma and brain samples were collected at the following time points: 0, 0.5, 1, 2, 3, 4, 6, 7, 24 hours. Tissues were immediately placed on dry ice and stored at −80 °C until processing. The AUC from time 0 to 24 h was calculated by the trapezoidal rule.
The tissues were rapidly thawed, spiked with 25 μl deuterated internal standard solution (containing THC-d3, 11-OH-THC-d3, and THC-COOH-d3; 5 ng/mL each, in methanol) (Cerillient Corporation, Round Rock, TX, USA) and homogenized on ice in Tris, pH 8.0. Protein precipitation was performed by adding two volumes ice-cold acetonitrile drop-wise while vortexing, centrifuged at 10,000 RCF for 10 minutes at 4 °C, and stored overnight at −20 °C to allow time for complete phase separation. The organic phase was transferred to a new glass tube and dried down under a steady stream of argon gas. The dried samples were resuspended in 100 μl 1:1 acetonitrile:ddH2O and submitted to the Stony Brook Proteomics Center for LC-MS/MS quantification of THC and THC metabolites.

human FABP1 [3] = target: T1, human FABP1; assay: DAUDA probe saturation binding to FABP1 (probe Kd determination); settings: FABP1 1 μM, DAUDA 0–16 μM
Experimental: Recombinant human FABP1 (1 μM) was titrated with DAUDA (0–16 μM). The raw fluorescence intensity at each data point was corrected by subtracting the signal from each respective probe concentration in the absence of protein. Kd and Bmax were then calculated by fitting the titration curve to the single-site saturation binding equation [Y = Bmax*X/(Kd + X)] using the GraphPad Prism software (Prism version 7.0 for Mac OS: Graphpad software Incorporated, La Jolla, CA, USA).

[4] = tested on: body temperature of wild-type and FABP1-KO mice; assay: THC-induced hypothermia (implanted iButton Thermocron core temperature); type: in vivo, mouse; settings: THC 10 mg/kg i.p.
Experimental: (§1) Hypothermia and spontaneous locomotor activity were assessed over a 12 hour period following a single intraperitoneal (i.p.) injection of 10 mg/kg THC or vehicle (1:1:18 DMSO:Cremophor-EL:saline) to naïve mice. This dose was selected because it produces submaximal cannabimimetic effects and potentiation of THC effects is unlikely to be hampered by a ceiling effect[33],[34]. All mice were kept on a 12/12 hour light/dark cycle and THC was administered immediately prior to the dark phase to control for circadian effects. […] Therefore, in the present study THC pharmacodynamics were independently assessed in mice of both genders.
Mice were anesthetized with an i.p. injection of a surgical mixture of ketamine (100 mg/kg) and xylazine (10 mg/kg). Thermocron iButton® (Dallas Semiconductor Company, Dallas, TX, USA) temperature data loggers were sterilized with 70% ethanol and surgically implanted into the abdominal cavities. The mice were permitted to recover from surgery for at least one week prior to being subjected to any experiments. The factory calibrated thermocrons were programmed to record temperature measurements every three minutes with 0.5 °C accuracy and 0.0625 °C precision.

[5] = tested on: locomotor activity of wild-type and FABP1-KO mice; assay: Home-cage spontaneous locomotor activity (photobeam system); type: in vivo, mouse; settings: THC 10 mg/kg i.p., 12 hour period, both sexes
Experimental: as §1
Locomotor activity was measured by the home-cage photobeam activity system (San Diego Instruments, San Diego, CA, USA). In this system each mouse home-cage was surrounded by a 4 × 8 photobeam array that detected and recorded movements in the X and Y directions. The animals were first conditioned to the cages in the testing room for one week to avoid novelty induced changes in locomotor activity. THC or vehicle were injected 10 minutes prior to the onset of the dark cycle and motility data was recorded over the next 12 hour period.

[6] = mouse, plasma, ip, 10 mg/kg, AUC, FABP1-KO mice
[7] = mouse, plasma, ip, 10 mg/kg, AUC, wild-type mice
[8] = mouse, plasma, ip, 10 mg/kg, Cmax, FABP1-KO mice
[9] = mouse, plasma, ip, 10 mg/kg, Cmax, wild-type mice

For CCCCCc1cc(O)c2c(c1)OC(C)(C)C1CCC(CO)=CC21 (stereo not shown) [11-OH-THC, 11-hydroxy-Δ^9-tetrahydrocannabinol], the Ki (human FABP1 [1]) was 7.12 ± 0.79 µM, the “time remaining at detectable levels longer in FABP1-KO than in wild-type” value ([2]; brain and plasma) was 1 to 2 h and the Cmax ([2]; brain, FABP1-KO mice) was 243.6 ± 114.3 pmol/g. The “M/P: metabolite to parent (THC) ratio (AUCm/AUCp)” value ([2]; brain, FABP1-KO mice) was 0.169, the AUC ([2]; brain, FABP1-KO mice) was 1244 ± 314.6 pmol·h/g and the Cmax ([2]; brain, wild-type mice) was 484.4 ± 207.8 pmol/g. The “M/P: metabolite to parent (THC) ratio (AUCm/AUCp)” value ([2]; brain, wild-type mice) was 0.918, the AUC ([2]; brain, wild-type mice) was 1327 ± 329.3 pmol·h/g and the AUC [2, 6] was 112 ± 18.4 ng·h/mL. It also gave an AUC [2, 7] of 59.4 ± 14.6 ng·h/mL, a Cmax [2, 8] of 50.6 ± 11.8 ng/mL and a Cmax [2, 9] of 29.5 ± 6.17 ng/mL. The “M/P: metabolite to parent (THC) ratio (AUCm/AUCp)” value ([2]; plasma, FABP1-KO mice) was 0.0044 and the “M/P: metabolite to parent (THC) ratio (AUCm/AUCp)” value ([2]; plasma, wild-type mice) was 0.0052.

With CCCCCCC(C)(C)c1cc(O)c2c(c1)OC(C)(C)[C@@H]1CC=C(C(=O)O)C[C@@H]21 [AJA, ajulemic acid] the Ki (human FABP1 [1]) was 26 ± 3.8 µM and the “maximal displacement of the fluorescent probe DAUDA” value (shortened to “maximal displacement”) (human FABP1 [1]) was “fully displace DAUDA”.

With C=C(C)[C@@H]1CCC(C)=C[C@H]1c1c(O)cc(CCCCC)cc1O [CBD, cannabidiol] the Ki (human FABP1 [1]; FABP1 3 μM, DAUDA 500 nM, 25 °C, 20 min, pH 7.6, read-out: Ki (DAUDA displacement from FABP1)) was 3.95 ± 0.65 µM and the “maximal displacement” value (human FABP1 [1]) was ~50%.

In the case of CN(C)c1cccc2c(S(=O)(=O)NCCCCCCCCCCC(=O)O)cccc12 [DAUDA, 11-(Dansylamino)unadecanoic acid], the Kd (human FABP1 [3]) is reported as 1.07 ± 0.17 µM.

For CCCCCCCCCCCCCCCC(=O)NCCO [PEA, Palmitoylethanolamide], the “remaining DAUDA fluorescence” value (human FABP1 [1]; at 50 µM) was 101.8 ± 3.3 % fluorescence.

With CCCCCc1cc(O)c2c(c1)OC(C)(C)[C@@H]1CCC(C)=C[C@@H]21 [THC, ∆^9-tetrahydrocannabinol] the Ki (human FABP1 [1]) was 2.93 ± 0.27 µM, the “maximal displacement” value (human FABP1 [1]) was ~50% and the Cmax ([2]; brain, FABP1-KO mice) was 881.9 ± 574.1 pmol/g. The AUC ([2]; brain, FABP1-KO mice) was 7363 ± 949.0 pmol·h/g, the “increase in the brain AUC, FABP1-KO compared to WT” value ([2]; brain) was ~ 6 fold and the Cmax ([2]; brain, wild-type mice) was 531.0 ± 71.35 pmol/g. For the same compound, the AUC ([2]; brain, wild-type mice) was 1446 ± 411.7 pmol·h/g, the AUC [2, 6] was 25200 ± 7330 ng·h/mL and the AUC [2, 7] was 11500 ± 2080 ng·h/mL. For the same compound, the Cmax [2, 8] was 34800 ± 2000 ng/mL, the Cmax [2, 9] was 13600 ± 2620 ng/mL and the “maximum mean body temperature change” value ([4]; FABP1-KO females) was −8.1 °C. The “maximum mean body temperature change” value ([4]; FABP1-KO males) was −7.4 °C, the “maximum mean body temperature change” value ([4]; WT females) was −4.8 °C and the “maximum mean body temperature change” value ([4]; WT males) was −4.8 °C. The “effect on spontaneous home-cage motility” value [5] was “significant decrease in overall motility”.

In the case of CCCCCc1cc(O)c2c(c1)OC(C)(C)C1CCC(C(=O)O)=CC21 (stereo not shown) [THC-COOH, 11-nor-9-carboxy-Δ^9-tetrahydrocannabinol], the Ki (human FABP1 [1]) is reported as 11.2 ± 0.7 µM, the Cmax ([2]; brain, FABP1-KO mice) is reported as 50.02 ± 3.16 pmol/g and the “M/P: metabolite to parent (THC) ratio (AUCm/AUCp)” value ([2]; brain, FABP1-KO mice) is reported as 0.071. The AUC ([2]; brain, FABP1-KO mice) was 522.6 ± 194.4 pmol·h/g, the “lower THC-COOH/THC ratio (AUCTHC-COOH/AUCTHC) in FABP1-KO brains vs WT” value ([2]; brain) was 3–4 fold and the “∆tmax (later maximal level in FABP1-KO brain vs WT)” value ([2]; brain) was 4 h. For the same compound, the Cmax ([2]; brain, wild-type mice) was 58.33 ± 1.21 pmol/g, the “M/P: metabolite to parent (THC) ratio (AUCm/AUCp)” value ([2]; brain, wild-type mice) was 0.251 and the AUC ([2]; brain, wild-type mice) was 362.8 ± 36.94 pmol·h/g. The AUC [2, 6] was 544 ± 21.2 ng·h/mL, the AUC [2, 7] was 506 ± 51.4 ng·h/mL and the Cmax [2, 8] was 78.7 ± 2.26 ng/mL. The Cmax [2, 9] was 87.1 ± 5.21 ng/mL, the “M/P: metabolite to parent (THC) ratio (AUCm/AUCp)” value ([2]; plasma, FABP1-KO mice) was 0.0215 and the “M/P: metabolite to parent (THC) ratio (AUCm/AUCp)” value ([2]; plasma, wild-type mice) was 0.0440.

CCCCCCCC/C=C\CCCCCCCC(=O)O [oleic acid] showed a DAUDA displacement (human FABP1 [1]; at 10 µM) of 96.5 ± 0.15 % displacement.
